Results taken from US5574008A, “Biologically active fragments of glucagon-like insulinotropic peptide” (Eli Lilly and Company, priority 1994, dated 1996).

Target: T1, rat GLP-1 receptor (Rattus norvegicus, UniProt P32301)
T1 construct: expressed in transfected cells; host or cells: Dihydrofolate reductase-deficient Chinese hamster ovary cell line DXB-11; membrane preparation
T1 sequence (P32301 22-463): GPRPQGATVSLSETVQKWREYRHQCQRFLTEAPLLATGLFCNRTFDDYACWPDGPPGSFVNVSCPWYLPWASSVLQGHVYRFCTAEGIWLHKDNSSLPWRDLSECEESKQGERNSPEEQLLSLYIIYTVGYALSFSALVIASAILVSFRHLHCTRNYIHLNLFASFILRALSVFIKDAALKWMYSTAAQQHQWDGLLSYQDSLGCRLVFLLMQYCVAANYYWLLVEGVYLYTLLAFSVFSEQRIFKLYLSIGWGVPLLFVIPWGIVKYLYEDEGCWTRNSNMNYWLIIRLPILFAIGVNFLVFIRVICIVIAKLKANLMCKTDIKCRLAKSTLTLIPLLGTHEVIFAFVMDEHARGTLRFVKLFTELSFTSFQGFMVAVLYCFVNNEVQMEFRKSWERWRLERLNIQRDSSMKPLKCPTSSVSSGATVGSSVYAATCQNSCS
Test: In vitro GLP-1 agonist cAMP assay (particle concentration fluorescence immunoassay, membrane preparation)
Format: biochemical
Method: Cells were grown to confluency in 10% dialyzed fetal bovine serum/high glucose Dulbecco's Modified Eagle Medium with 0.1% proline at 37° C. The cell were then harvested, and membranes were prepared by first washing the cells with phosphate buffered saline (PBS), then twice with cold buffer (25 mM 4-(2-hydroxyethyl)-1 piperazineethanesulfonic acid (HEPES), 2 mM MgCl2, 1 mM ethylenedinitrilo-tetraacetic acid (EDTA), 20 μg/ml Leupeptin, 1 mM phenylmethyl sulfonyl fluoride (PMSF), 2 μg/ml Aprotinin, 50 μg/ml Trypsin Inhibitor, pH 8.0). The washed cells were resuspended in cold buffer, lysed in a glass Teflon homogenizer and then centrifuged at 35,300 g for 30 minutes at 4° C. The supernatant was removed and the pellet resuspended in cold buffer and homogenized. Two hundred μl aliquots (3.2 mg/ml) were stored at -80° C.
Briefly, 10 μl of membrane prep (80 μg/ml) was preincubated with 10 μl of test compound or reference compound in buffer (25 mM HEPES, 0.2% (w/v) bovine serum albumin (BSA), pH 7.6) at 32° C. for 10 minutes. Five μl of reaction buffer (25 mM HEPES, 0.2% (w/v) BSA, 13 mM (CH3 C00)2 Mg.4H2 O, 4 mM adenosine-5'-triphosphate (ATP), 40 nM guanosine 5'-O-3'thiotriphosphate (GTP-∂-s), 25 mM creatine phosphate, creatine kinase 250 U/ml, 1 mM 3-Isobutyl-1-methyl xanthine (IBMX), pH 7.6) was added and incubated for an additional 30 minutes. Incubations were stopped by adding 25 μl 10 mM EDTA and fluorescent tracer (cAMP-β phycoerythrin conjugate).
This assay, a particle concentration fluorescence immunoassay, was based on the competition between unlabelled cAMP and a fixed amount of fluorescent labelled cAMP for a limited number of binding sites on a cAMP specific antibody. By keeping the quantity of fluorescent ligand and antibody fixed, the amount of fluorescent ligand bound by the antibody was inversely proportional to the concentration of unlabelled cAMP. The antibody-bound cAMP was then captured by anti-rabbit IgG coated assay particles. Separation of the bound antibody fraction was achieved by filtration on Fluoricon®-Ca Assay Plates. After measuring the fluorescence in the pellet, the amount of bound fluorescent cAMP was calculated. The rate of cAMP production (pmol/min/mg) was then determined by interpolation from a standard curve.

cAMP produced (Dose 0.005 nM): 21.165 pmol/min/mg
cAMP produced (Dose 0.01 nM): 21.743 pmol/min/mg
cAMP produced (Dose 0.02 nM): 20.678 pmol/min/mg
cAMP produced (Dose 0.05 nM): 22.602 pmol/min/mg
cAMP produced (Dose 0.1 nM): 22.033 pmol/min/mg
cAMP produced (Dose 0.4 nM): 21.460 pmol/min/mg
cAMP produced (Dose 1 nM): 21.588 pmol/min/mg
cAMP produced (Dose 4 nM): 21.046 pmol/min/mg
cAMP produced (Dose 10 nM): 22.320 pmol/min/mg
cAMP produced (Dose 100 nM): 19.156 pmol/min/mg
Compound: CC[C@H](C)[C@H](NC(=O)[C@H](Cc1ccccc1)NC(=O)[C@H](CCC(=O)O)NC(=O)[C@H](CCCCN)NC(=O)[C@H](C)NC(=O)[C@H](C)NC(=O)[C@H](CCC(N)=O)NC(=O)CNC(=O)[C@H](CCC(=O)O)NC(=O)[C@H](CC(C)C)NC(=O)[C@H](Cc1ccc(O)cc1)NC(=O)[C@H](CO)NC(=O)[C@H](CO)NC(=O)[C@@H](NC(=O)[C@H](CC(=O)O)NC(=O)[C@H](CO)NC(=O)[C@@H](NC(=O)[C@H](Cc1ccccc1)NC(=O)[C@@H](NC(=O)CNC(=O)[C@@H](N)CCC(=O)O)[C@@H](C)O)[C@@H](C)O)C(C)C)C(=O)N[C@@H](C)C(=O)N[C@@H](Cc1c[nH]c2ccccc12)C(=O)N[C@@H](CC(C)C)C(=O)N[C@H](C(=O)N[C@@H](CCCCN)C(=O)NCC(=O)N[C@@H](CCCNC(=N)N)C(N)=O)C(C)C [GLP-1(9-36)NH2]
